Experimental data published in article PMC2832868 (Journal of Medicinal Chemistry, 2010).
Like-named read-outs stand apart in the source and are kept apart here. Marks after values point to notes of the source that are not given here.

What was measured:
Pharmacokinetics in mice = type: in vivo
[1] = Solubility in aqueous buffer; type: physicochemical
[2] = mice, cited from earlier work

SMILES | Foral (Pharmacokinetics in mice; oral administration of same dose (10 mg kg^−1)) | drug levels following oral dosing (Pharmacokinetics in mice; oral dosing 10 mg/kg) | solubility (S) at pH 7 [1] | Foral ([2]; oral administration of same dose (25 mg kg^−1)) | Clp ([2]; plasma, IV dose 25 mg kg^−1)
CC(C)(C)c1ccc(CC2(N)CCN(c3ncnc4[nH]ccc34)CC2)cc1 [Compound 10, 4-(4-tert-Butylbenzyl)-1-(7H-pyrrolo[2,3-d]pyrimidin-4-yl)piperidin-4-amine] | <1 ^c % | no measurable drug levels | – | – | –
NC1(Cc2ccc(Cl)cc2)CCN(c2ncnc3[nH]ccc23)CC1 [Compound 2, 4-(4-chlorobenzyl)-1-(7H-pyrrolo[2,3-d]pyrimidin-4-yl)piperidin-4-amine] | – | – | negligible solubility | 8.5% | 0.33 L/h
